The supplement of paper PMC10307832

Key:
Test in all cases: relative viability (nuclei count vs DMSO), 5 days (fraction); higher = more cells survive
[1] = compound: CCC1=CN=CN=C1N2CCN(CC2)CC3=NC4=C(N3)C=C(C=C4)C(F)(F)F + COc1cccc2cc(-c3nc([C@H]4CC[C@H](C(=O)O)CC4)n4ncnc(N)c34)[nH]c12 [OSI-027] (partner 0.5 µM)
Outline: (§1)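 Relative viability equals treated-well nuclei counts divided by vehicle-well nuclei counts. Counts came from 4× images of lung cancer cell lines grown in 1536-well plates for 5 days after pin-tool dosing on the day after seeding. Dosing used one drug alone or a fixed anchor-drug dose plus five library-drug doses (not always all listed) in √10 steps, and values are medians of duplicate plates.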

[2] = compound: CCC1=CN=CN=C1N2CCN(CC2)CC3=NC4=C(N3)C=C(C=C4)C(F)(F)F + Nc1ncn([C@H]2C[C@H](O)[C@@H](CO)O2)c(=O)n1 [Decitabine] (partner 2 µM)
Outline: as §1

[3] = compound: CCC1=CN=CN=C1N2CCN(CC2)CC3=NC4=C(N3)C=C(C=C4)C(F)(F)F + C[C@@H](Oc1cc(-c2cnn(C3CCNCC3)c2)cnc1N)c1c(Cl)ccc(F)c1Cl [Crizotinib] (partner 1 µM)
Outline: as §1

Mirin + Palbociclib = compound: N=C1NC(=O)/C(=C/c2ccc(O)cc2)S1 [Mirin] + CC(=O)c1c(C)c2cnc(Nc3ccc(N4CCNCC4)cn3)nc2n(C2CCCC2)c1=O [Palbociclib] (partner 0.5 µM)
Outline: as §1

UMC-11
relative viability ([1]; first compound 0.04 µM): 0.464 | relative viability ([1]; first compound 0.1265 µM): 0.495 | relative viability ([1]; first compound 0.4 µM): 0.417 | relative viability ([1]; first compound 1.265 µM): 0.445 | relative viability ([1]; first compound 4 µM): 0.406 | relative viability ([2]; first compound 0.04 µM): 0.622 | relative viability ([2]; first compound 0.1265 µM): 0.562 | relative viability ([2]; first compound 0.4 µM): 0.602 | relative viability ([2]; first compound 1.265 µM): 0.379 | relative viability ([2]; first compound 4 µM): 0.351 | relative viability ([3]; first compound 0.04 µM): 0.572 | relative viability ([3]; first compound 0.1265 µM): 0.611 | relative viability ([3]; first compound 0.4 µM): 0.621 | relative viability ([3]; first compound 1.265 µM): 0.615 | relative viability ([3]; first compound 4 µM): 0.906 | relative viability (Mirin + Palbociclib; first compound 0.25 µM): 0.33 | relative viability (Mirin + Palbociclib; first compound 2.5 µM): 0.317 | relative viability (Mirin + Palbociclib; first compound 7.906 µM): 0.331 | relative viability (Mirin + Palbociclib; first compound 25 µM): 0.309
